Laboratory results taken from the supplement of paper PMC10307832.

The cell lines below were run with COC1=CC=C(C=C1)CN2C=CC3=C2C=C(C=C3)C(=O)NO + CC(=O)Nc1cccc(-n2c(=O)n(C3CC3)c(=O)c3c(Nc4ccc(I)cc4F)n(C)c(=O)c(C)c32)c1 [Trametinib] (partner 0.02 µM) (assay: relative viability (nuclei count vs DMSO), 5 days (fraction); higher = more cells survive). Conditions: first compound 0.08 µM.
Method in brief: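 Lung cancer cell lines in 1536-well plates got either a single drug or a fixed anchor-drug dose together with five library-drug doses (not always all listed) in √10 steps, by pin tool, on the day after seeding. Nuclei were counted after 5 days, and relative viability is the treated-to-vehicle ratio of nuclei counts. Values are medians of duplicate plates.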

Cell Line | relative viability
NCI-H2342 | 0.815
NCI-H1975 | 0.308
H3255 | 0.593
NCI-H2023 | 0.478
NCI-H2405 | 0.544
SK-LU-1 | 0.347
NCI-H1437 | 0.452
NCI-H596 | 0.64
HCC-15 | 0.334
NCI-H460 | 0.157
EMC-BAC-2 | 0.629
NCI-H2009 | 0.288
COR-L 105 | 0.348
NCI-H520 | 0.426
NCI-H1648 | 0.413
HCC-78 | 0.671
NCI-H1650 | 0.543
LK-2 | 0.534
PC-14 | 0.741
SW 900 | 0.722
NCI-H2228 | 0.386
NCI-H2170 | 0.888
SK-MES-1 | 0.549
CAL-12T | 0.387

Same assay, conditions: first compound 0.253 µM

Cell Line | relative viability
NCI-H2342 | 0.901
LU99A | 0.61
NCI-H1975 | 0.348
H3255 | 0.608
NCI-H2023 | 0.594
SK-LU-1 | 0.537
NCI-H1734 | 0.739
NCI-H1437 | 0.494
NCI-H596 | 0.797
HCC-15 | 0.355
NCI-H460 | 0.123
NCI-H2009 | 0.264
COR-L 105 | 0.469
NCI-H1395 | 1.07
NCI-H520 | 0.723
NCI-H1648 | 0.42

Cell Line | relative viability
NCI-H358 | 0.165
HCC-78 | 0.807
EKVX | 0.28
NCI-H1650 | 0.595
EPLC-272H | 0.314
LK-2 | 0.694
PC-14 | 0.687
LXF-289 | 0.698
SW 900 | 0.774
NCI-H522 | 0.812
NCI-H1793 | 0.471
NCI-H2228 | 0.664
NCI-H2170 | 0.931
SK-MES-1 | 0.551
CAL-12T | 0.347
NCI-H1944 | 0.415

Same assay, conditions: first compound 0.8 µM

Cell Line | relative viability
NCI-H2342 | 0.759
LU99A | 0.553
NCI-H1975 | 0.359
H3255 | 0.618
NCI-H2023 | 0.474
NCI-H2405 | 0.641
SK-LU-1 | 0.51
NCI-H1734 | 0.725
NCI-H1437 | 0.538
NCI-H596 | 0.923
HCC-15 | 0.424
NCI-H460 | 0.153
EMC-BAC-2 | 0.971
NCI-H2009 | 0.261
COR-L 105 | 0.443
NCI-H1395 | 1.06
NCI-H520 | 0.74

Cell Line | relative viability
NCI-H1648 | 0.461
NCI-H358 | 0.153
HCC-78 | 0.634
EKVX | 0.345
NCI-H1650 | 0.645
EPLC-272H | 0.297
LK-2 | 0.658
PC-14 | 0.753
LXF-289 | 0.712
SW 900 | 0.872
NCI-H522 | 0.678
NCI-H1793 | 0.449
NCI-H2228 | 0.831
NCI-H2170 | 0.867
SK-MES-1 | 0.549
CAL-12T | 0.33
NCI-H1944 | 0.449

Same assay, conditions: first compound 2.53 µM

Cell Line | relative viability
NCI-H2342 | 0.971
LU99A | 0.548
NCI-H1975 | 0.413
H3255 | 0.672
NCI-H2023 | 0.589
NCI-H2405 | 0.686
SK-LU-1 | 0.579
NCI-H1734 | 0.716
NCI-H1437 | 0.66
NCI-H596 | 0.776
HCC-15 | 0.41
NCI-H460 | 0.178
EMC-BAC-2 | 0.95
NCI-H2009 | 0.248
COR-L 105 | 0.471
NCI-H1395 | 0.96
NCI-H520 | 0.555

Cell Line | relative viability
NCI-H1648 | 0.583
NCI-H358 | 0.15
HCC-78 | 0.798
EKVX | 0.366
NCI-H1650 | 0.624
EPLC-272H | 0.308
LK-2 | 0.686
PC-14 | 0.722
LXF-289 | 0.677
SW 900 | 0.674
NCI-H522 | 0.767
NCI-H1793 | 0.416
NCI-H2228 | 0.598
NCI-H2170 | 0.897
SK-MES-1 | 0.586
CAL-12T | 0.335
NCI-H1944 | 0.421

Same assay, conditions: first compound 8 µM

Cell Line | relative viability
NCI-H2342 | 0.861
LU99A | 0.455
NCI-H1975 | 0.349
H3255 | 0.547
NCI-H2023 | 0.48
NCI-H2405 | 0.625
SK-LU-1 | 0.447
NCI-H1734 | 0.732
NCI-H1437 | 0.57
NCI-H596 | 0.758
HCC-15 | 0.372
NCI-H460 | 0.0809
EMC-BAC-2 | 0.803
NCI-H2009 | 0.194
COR-L 105 | 0.385
NCI-H1395 | 0.995
NCI-H520 | 0.723

Cell Line | relative viability
NCI-H1648 | 0.438
NCI-H358 | 0.112
HCC-78 | 0.613
EKVX | 0.305
NCI-H1650 | 0.539
EPLC-272H | 0.238
LK-2 | 0.646
PC-14 | 0.734
LXF-289 | 0.677
SW 900 | 0.766
NCI-H522 | 0.64
NCI-H1793 | 0.336
NCI-H2228 | 0.433
NCI-H2170 | 0.865
SK-MES-1 | 0.575
CAL-12T | 0.301
